Test results as given in patent publication US10703756B2, “Pyrrolo[2,3-D]pyrimidinyl, pyrrolo[2,3-B]pyrazinyl, pyrrolo[2,3-B]pyridinyl acrylamides and epoxides thereof” (Pfizer Inc., priority 2015, dated 2020).

What was measured:
JAK3 enzyme [1] = target: T1, JAK3 enzyme (Homo sapiens, UniProt P52333); assay: JAK Caliper Enzyme Assay at 1 mM ATP; format: biochemical
T1 sequence (P52333 1-1124): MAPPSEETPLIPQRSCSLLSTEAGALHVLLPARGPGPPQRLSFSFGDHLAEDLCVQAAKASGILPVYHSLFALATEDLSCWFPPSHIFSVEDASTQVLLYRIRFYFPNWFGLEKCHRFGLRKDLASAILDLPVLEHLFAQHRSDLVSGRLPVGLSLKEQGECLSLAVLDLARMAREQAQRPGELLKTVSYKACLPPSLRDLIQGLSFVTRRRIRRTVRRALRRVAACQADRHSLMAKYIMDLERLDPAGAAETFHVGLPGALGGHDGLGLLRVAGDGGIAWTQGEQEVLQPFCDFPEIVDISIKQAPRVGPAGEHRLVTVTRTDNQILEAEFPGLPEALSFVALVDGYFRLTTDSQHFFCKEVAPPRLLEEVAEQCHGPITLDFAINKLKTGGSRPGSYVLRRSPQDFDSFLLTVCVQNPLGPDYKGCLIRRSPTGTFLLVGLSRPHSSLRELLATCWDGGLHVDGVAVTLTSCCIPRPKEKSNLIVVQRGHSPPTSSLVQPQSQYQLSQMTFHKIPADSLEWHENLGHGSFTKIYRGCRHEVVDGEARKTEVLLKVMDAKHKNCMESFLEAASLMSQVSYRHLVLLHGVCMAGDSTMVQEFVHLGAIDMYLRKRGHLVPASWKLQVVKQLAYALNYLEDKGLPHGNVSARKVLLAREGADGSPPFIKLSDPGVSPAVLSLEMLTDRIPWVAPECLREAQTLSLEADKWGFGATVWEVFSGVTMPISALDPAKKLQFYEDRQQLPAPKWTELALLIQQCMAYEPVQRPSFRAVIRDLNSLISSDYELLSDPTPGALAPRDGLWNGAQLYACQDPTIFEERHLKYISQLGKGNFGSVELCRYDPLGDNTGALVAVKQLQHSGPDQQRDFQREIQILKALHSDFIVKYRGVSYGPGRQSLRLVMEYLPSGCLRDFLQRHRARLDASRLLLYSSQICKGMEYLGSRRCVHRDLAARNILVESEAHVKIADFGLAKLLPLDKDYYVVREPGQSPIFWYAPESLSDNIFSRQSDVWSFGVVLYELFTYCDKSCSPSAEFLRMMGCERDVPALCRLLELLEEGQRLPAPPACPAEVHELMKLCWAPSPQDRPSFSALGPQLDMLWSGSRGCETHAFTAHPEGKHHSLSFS
How it was run: (§1)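 Peptide phosphorylation by the kinase, adjusted to 20%-30% conversion, is measured by microfluidic separation of substrate and product on a Caliper LC3000. Compounds run as 11-point half-log series from a 600 μM DMSO top concentration.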

[2] = system: IL-15 induced P-STAT5 in human PBMC; assay: PBMC IL-15 Induced P-STAT5; format: cell-based; settings: human PBMC, IL-15 final 41 ng/mL; read-out: PBMC IL15_pSTAT5_IC50
Protocol: PBMC IL-15 Induced P-STAT5
Test compounds were serially diluted in DMSO, with further dilution of the compounds in RPMI 1640 medium (Invitrogen #72400) supplemented with 10 mM HEPES, pH 7.4, 1 mM sodium pyruvate, and Penicillin/Streptomycin (by adding 5 μL compound/DMSO in 120 μL Dulbecco's Phosphate-Buffered Saline (D-PBS, 1×), [DMSO]=4%, and mixing the solution by repeated pipetting, 6×). IL-15 was diluted to the concentration at 820 ng/mL in RPMI 1640 medium.
Frozen human PBMC (200-250 million cells/vial) was thawed at 37° C. The cells were transferred to 10 mL warm medium in a 50-mL conical tube, and centrifuged at 1,200 RPM at room temperature for 5 min. The supernatant was aspirated. Cells were suspended in 3 mL warm human plasma and incubated at 37° C. in a tissue culture incubator for 1.5 to 2 h. After adding 47 ml D-PBS (37° C.) to PBMC/FBS suspension, centrifuging at 1,200 RPM at room temperature for 5 min, and aspirating the supernatant, the cells were resuspended in 20 mL warm RPMI medium. Ninety μL of cell suspension were pipetted per well in a 96-well, deep-well, V-bottom plate, and the plate was incubated at 37° C. for 30 min. Five μL of compound were transferred to each well (final 0.2% DMSO), vortex gently and incubate at 37° C. for 15 min; 5 μL 4% DMSO/PBS were added to the control wells. After adding 5 μL 820 ng/mL of human IL-15 (final 41 ng/mL) to each well (5 μL PBS to the control wells), vortexing gently and incubating at 37° C. for 15 min, followed by 0.3 mL 1% paraformaldehyde/PBS (37° C.) to each well, and incubating the plate at room temperature for 15 min, the plates were centrifuged at 1,200 RPM (Beckman GS-6R or Sorvall Legend) at room temperature for 5 min, and the supernatant was aspirated using a 8-channel or 12-channel manifold. After adding 0.8 mL staining buffer per well, the plates were centrifuged at 1,200 RPM (Beckman GS-6R or Sorvall Legend) at room temperature for 5 min, and again the supernatant was aspirated using a 8-channel or 12-channel manifold. The plate was vortexed, and 0.35 mL 90% methanol/10% H2O (−20° C.) was added per well, and the plate incubated on ice for 20 min. After again adding 0.8 mL staining buffer per well, the plates were centrifuged at 1,200 RPM (Beckman GS-6R or Sorvall Legend) at room temperature for 5 min, and again the supernatant was aspirated using a 8-channel or 12-channel manifold, and then 0.8 mL Staining buffer was added per well. After once again adding 0.8 mL staining buffer per well, the plates were centrifuged at 1,200 RPM (Beckman GS-6R or Sorvall Legend) at room temperature for 5 min, and again the supernatant was aspirated using a 8-channel or 12-channel manifold. Then the plate was vortexed, and 250 μL/well of Alexa Fluor® 647 conjugated anti-STAT5 antibody ([…]; […]) was added, and the plate was incubated at 4° C. overnight in the dark. Samples of 250 μL/well were transferred to a 96-well U-bottom plate, and the FACS analysis was performed gating on total lymphocytes. Samples were analyzed using a BD Calibur™ or BD FACSCanto™ flow cytometer equipped with the BD High Throughput Sampler.

JAK3 enzyme [3] = target: T1, JAK3 enzyme; assay: JAK Caliper Enzyme Assay at 4 μM ATP; format: biochemical
How it was run: as §1

| Compound | IC50 (JAK3 enzyme [1]) [nM] | IC50 (JAK3 enzyme [3]) [nM] | IC50 [2] [nM] |
| --- | --- | --- | --- |
| C=CC(=O)N1CC[C@@H](Oc2cnc3[nH]cc(C(=O)NCC)c3n2)[C@H](C)C1 (racemic) [Example 46, Trans-racemic-2-{[1-acryloyl-3-methylpiperidin-4-yl]oxy}-N-ethyl-5H-pyrrolo[2,3-b]pyrazine-7-carboxamide] | 209 | 3.38 | 871 |
| C=CC(=O)N1C[C@@H](CO)C[C@@H](Nc2ncnc3[nH]ccc23)C1 (racemic) [Example 97, racemic-1-((3R,5S)-3-((7H-pyrrolo[2,3-d]pyrimidin-4-yl)amino)-5-(hydroxymethyl)piperidin-1-yl)prop-2-en-1-one] | 187 | 1.71 | 1060 |
| C=CC(=O)N1CCN(c2cnc3[nH]cc(C(=O)N[C@@H]4C[C@H]4C(F)(F)F)c3n2)CC1(C)C [Example 290, 2-(4-acryloyl-3,3-dimethylpiperazin-1-yl)-N-[(1R,2R)-2-(trifluoromethyl)cyclopropyl]-5H-pyrrolo[2,3-b]pyrazine-7-carboxamide] | 2150 | 20.8 |  |
| C=CC(=O)N1CCN(c2cnc3[nH]cc(C(=O)NC4CC(F)(F)C4)c3n2)CC1(C)C [Example 325, 2-(4-acryloyl-3,3-dimethylpiperazin-1-yl)-N-(3,3-difluorocyclobutyl)-5H-pyrrolo[2,3-b]pyrazine-7-carboxamide] | 1260 | 12.8 |  |
| C=CC(=O)N1CCC(Oc2cnc3[nH]cc(C(=O)NCCC(F)(F)F)c3c2)CC1 [Example 338, 5-[(1-acryloylpiperidin-4-yl)oxy]-N-(3,3,3-trifluoropropyl)-1H-pyrrolo[2,3-b]pyridine-3-carboxamide] | 2780 | 31.4 |  |
| C=CC(=O)N1CCC(Oc2cnc3[nH]cc(C(=O)NCc4cccc(F)c4)c3c2)CC1 [Example 340, 5-[(1-acryloylpiperidin-4-yl)oxy]-N-(3-fluorobenzyl)-1H-pyrrolo[2,3-b]pyridine-3-carboxamide] | 3470 | 30 |  |
| C=CC(=O)N1CCC(Oc2cnc3[nH]cc(C(=O)NCC4CCC4)c3c2)CC1 [Example 345, 5-[(1-acryloylpiperidin-4-yl)oxy]-N-(cyclobutylmethyl)-1H-pyrrolo[2,3-b]pyridine-3-carboxamide] | 4030 | 43.7 |  |
| C=CC(=O)N1CCC(Oc2cnc3[nH]cc(C(=O)NCc4ccccc4F)c3c2)CC1 [Example 346, 5-[(1-acryloylpiperidin-4-yl)oxy]-N-(2-fluorobenzyl)-1H-pyrrolo[2,3-b]pyridine-3-carboxamide] | 4440 | 40.9 |  |
| C=CC(=O)N1CCC(Oc2cnc3[nH]cc(C(=O)NCCCC)c3c2)CC1 [Example 348, 5-[(1-acryloylpiperidin-4-yl)oxy]-N-butyl-1H-pyrrolo[2,3-b]pyridine-3-carboxamide] | 1190 | 10.2 |  |

The next lines start with results.

| IC50 (JAK3 enzyme [1]) [nM] | IC50 (JAK3 enzyme [3]) [nM] | Compound | IC50 [2] [nM] |
| --- | --- | --- | --- |
| 92 | 1.33 | C=CC(=O)N1CC[C@@H](Nc2cnc3[nH]cc(C(=O)NCC)c3n2)[C@H](OC)C1 (racemic) [Example 25, Trans-racemic-2-{[1-acryloyl-3-methoxypiperidin-4-yl]amino}-N-ethyl-5H-pyrrolo[2,3-b]pyrazine-7-carboxamide] | 1600 |
| 148 | 0.8 | C=CC(=O)N1C[C@@H](Nc2ncnc3[nH]ccc23)C[C@@H](C(=O)N(C)C)C1 (racemic) [Example 94] | 1080 |
| 1490 | 15.5 | C=CC(=O)N1CCN(c2cnc3[nH]cc(C(=O)NCC4(O)CCC(F)(F)CC4)c3n2)CC1(C)C [Example 291, 2-(4-acryloyl-3,3-dimethylpiperazin-1-yl)-N-[(4,4-difluoro-1-hydroxycyclohexyl)methyl]-5H-pyrrolo[2,3-b]pyrazine-7-carboxamide] |  |
| 731 | 4.81 | C=CC(=O)N1CCN(c2cnc3[nH]cc(C(=O)N[C@@H]4C[C@H]4C(F)(F)F)c3n2)C[C@@H]1CC(C)C [Example 303, 2-[(3S)-4-acryloyl-3-(2-methylpropyl)piperazin-1-yl]-N-[(1R,2R)-2-(trifluoromethyl)cyclopropyl]-5H-pyrrolo[2,3-b]pyrazine-7-carboxamide] |  |
| 2700 | 16.5 | C=CC(=O)N1CCC(Oc2cnc3[nH]cc(C(=O)NC4CCCC(F)(F)C4)c3c2)CC1 (stereo not drawn) [Example 339, 5-[(1-acryloylpiperidin-4-yl)oxy]-N-(3,3-difluorocyclohexyl)-1H-pyrrolo[2,3-b]pyridine-3-carboxamide] |  |
| 2630 | 26.4 | C=CC(=O)N1CCC(Oc2cnc3[nH]cc(C(=O)NCc4ccccc4)c3c2)CC1 [Example 342, 5-[(1-acryloylpiperidin-4-yl)oxy]-N-benzyl-1H-pyrrolo[2,3-b]pyridine-3-carboxamide] |  |
| 4880 | 75.1 | C=CC(=O)N1CCC(Oc2cnc3[nH]cc(C(=O)NCC4CC4)c3c2)CC1 [Example 343, 5-[(1-acryloylpiperidin-4-yl)oxy]-N-(cyclopropylmethyl)-1H-pyrrolo[2,3-b]pyridine-3-carboxamide] |  |
| 2540 | 26.7 | C=CC(=O)N1CCC(Oc2cnc3[nH]cc(C(=O)N[C@H]4CC[C@@H](F)C4)c3c2)CC1 [Example 344, 5-[(1-acryloylpiperidin-4-yl)oxy]-N-[(1S,3R)-3-fluorocyclopentyl]-1H-pyrrolo[2,3-b]pyridine-3-carboxamide] |  |
| 3080 | 24.2 | C=CC(=O)N1CCC(Oc2cnc3[nH]cc(C(=O)NCCC)c3c2)CC1 [Example 347, 5-[(1-acryloylpiperidin-4-yl)oxy]-N-propyl-1H-pyrrolo[2,3-b]pyridine-3-carboxamide] |  |
| 4500 | 52.3 | C=CC(=O)N1CCC(Nc2cnc3[nH]cc(C(=O)NCC)c3c2)CC1 [Example 352, 5-((1-acryloylpiperidin-4-yl)amino)-N-ethyl-1H-pyrrolo[2,3-b]pyridine-3-carboxamide] |  |
